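Five compound concentrations were applied to cells in 96-well plates for 48 hours; endpoints were derived by simple linear interpolation of the resulting dose-response curve. GI50: concentration for 50% inhibition of growth.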 Active and inactive are the calls of the source. Rule as the data show it: active = GI50 up to about 1.1 µM and inactive = higher.
Columns and labels:
Assay in all cases: NCI tumour cell line growth inhibition, 48 h
KM12 = tested on: KM12
NCI-H226 = tested on: NCI-H226
K562 = tested on: K562
NCI-H23 = tested on: NCI-H23
MDA-MB-435 = tested on: MDA-MB-435
LOX IMVI = tested on: LOX IMVI
HOP-62 = tested on: HOP-62
HCC 2998 = tested on: HCC 2998
T47D = tested on: T47D
HOP-92 = tested on: HOP-92
NCI-H522 = tested on: NCI-H522
PC-3 = tested on: PC-3
BT-549 = tested on: BT-549
MDA-N = tested on: MDA-N
SNB-19 = tested on: SNB-19
RXF 393 = tested on: RXF 393
HCT-15 = tested on: HCT-15
MOLT-4 = tested on: MOLT-4
UACC-62 = tested on: UACC-62
OVCAR-4 = tested on: OVCAR-4
HL-60 = tested on: HL-60
A549 = tested on: A549
EKVX = tested on: EKVX
CAKI-1 = tested on: CAKI-1
OVCAR-8 = tested on: OVCAR-8
SW-620 = tested on: SW-620
SF-295 = tested on: SF-295
DU-145 = tested on: DU-145
MDA-MB-231 = tested on: MDA-MB-231
IGROV-1 = tested on: IGROV-1
RPMI-8226 = tested on: RPMI-8226
HCT-116 = tested on: HCT-116
OVCAR-3 = tested on: OVCAR-3
TK-10 = tested on: TK-10
UO-31 = tested on: UO-31
MCF7 = tested on: MCF7
SK-MEL-5 = tested on: SK-MEL-5
ACHN = tested on: ACHN
OVCAR-5 = tested on: OVCAR-5
NCI-H460 = tested on: NCI-H460
SF-268 = tested on: SF-268
SK-MEL-2 = tested on: SK-MEL-2
CCRF-CEM = tested on: CCRF-CEM
M14 = tested on: M14
SR = tested on: SR
786-0 = tested on: 786-0
SNB-75 = tested on: SNB-75
NCI/ADR-RES = tested on: NCI/ADR-RES
HT-29 = tested on: HT-29
Hs-578T = tested on: Hs-578T
SF-539 = tested on: SF-539
SK-MEL-28 = tested on: SK-MEL-28
SN12C = tested on: SN12C
COLO 205 = tested on: COLO 205
UACC-257 = tested on: UACC-257
SK-OV-3 = tested on: SK-OV-3
A498 = tested on: A498
Malme-3M = tested on: Malme-3M
U-251 = tested on: U-251

COc1ccc(OC)c(Cc2cnc3nc(N)nc(N)c3c2C)c1 [PIRITREXIM ISETHIONATE]
GI50 (KM12): 0.243 µM (active)
GI50 (NCI-H226): 2.19 µM (inactive)
GI50 (K562): < 0.01 µM (active)
GI50 (NCI-H23): 0.0617 µM (active)
GI50 (MDA-MB-435): < 0.0435 µM (active)
GI50 (LOX IMVI): < 0.0142 µM (active)
GI50 (HOP-62): 0.188 µM (active)
GI50 (HCC 2998): 0.258 µM (active)
GI50 (T47D): 11.1 µM (inactive)
GI50 (HOP-92): 0.752 µM (active)
GI50 (NCI-H522): 0.204 µM (active)
GI50 (PC-3): 0.0353 µM (active)
GI50 (BT-549): 13.4 µM (inactive)
GI50 (MDA-N): < 0.018 µM (active)
GI50 (SNB-19): 0.236 µM (active)
GI50 (RXF 393): 2.06 µM (inactive)
GI50 (HCT-15): 0.0149 µM
GI50 (MOLT-4): < 0.0171 µM (active)
GI50 (UACC-62): 0.853 µM (active)
GI50 (OVCAR-4): 13.2 µM (inactive)
GI50 (HL-60): < 0.01 µM (active)
GI50 (A549): < 0.01 µM (active)
GI50 (EKVX): 19.5 µM (inactive)
GI50 (CAKI-1): 0.0456 µM (active)
GI50 (OVCAR-8): < 0.0234 µM (active)
GI50 (SW-620): < 0.0231 µM (active)
GI50 (SF-295): 0.0592 µM (active)
GI50 (DU-145): 0.284 µM (active)
GI50 (MDA-MB-231): 15.3 µM (inactive)
GI50 (IGROV-1): < 0.0111 µM (active)
GI50 (RPMI-8226): 0.173 µM (active)
GI50 (HCT-116): < 0.0112 µM (active)
GI50 (OVCAR-3): 0.533 µM (active)
GI50 (TK-10): 13.5 µM (inactive)
GI50 (UO-31): 0.24 µM (active)
GI50 (MCF7): 0.634 µM (active)
GI50 (SK-MEL-5): 0.0955 µM (active)
GI50 (ACHN): < 0.01 µM (active)
GI50 (OVCAR-5): 16.1 µM (inactive)
GI50 (NCI-H460): < 0.01 µM (active)
GI50 (SF-268): 0.0957 µM (active)
GI50 (SK-MEL-2): 0.986 µM (active)
GI50 (CCRF-CEM): < 0.0198 µM (active)
GI50 (M14): < 0.0201 µM (active)
GI50 (SR): 0.03 µM (active)
GI50 (786-0): < 0.0497 µM (active)
GI50 (SNB-75): 2.1 µM (inactive)
GI50 (NCI/ADR-RES): 0.989 µM (active)
GI50 (HT-29): < 0.0168 µM (active)
GI50 (Hs-578T): 15.1 µM (inactive)
GI50 (SF-539): 0.291 µM (active)
GI50 (SK-MEL-28): 1.25 µM (inactive)
GI50 (SN12C): 0.352 µM (active)
GI50 (COLO 205): 12.9 µM (inactive)
GI50 (UACC-257): 13.9 µM (inactive)
GI50 (SK-OV-3): 11.3 µM (inactive)

COC(=O)c1ccccc1NC(=S)NN(C)C
GI50 (A498): > 100 µM (inactive)
GI50 (KM12): > 100 µM (inactive)
GI50 (NCI-H226): > 100 µM (inactive)
GI50 (K562): > 100 µM (inactive)
GI50 (Malme-3M): > 100 µM (inactive)
GI50 (NCI-H23): > 100 µM (inactive)
GI50 (MDA-MB-435): > 100 µM (inactive)
GI50 (LOX IMVI): > 100 µM (inactive)
GI50 (HCC 2998): > 100 µM (inactive)
GI50 (T47D): > 100 µM (inactive)
GI50 (NCI-H522): > 100 µM (inactive)
GI50 (PC-3): > 100 µM (inactive)
GI50 (BT-549): > 100 µM (inactive)
GI50 (MDA-N): > 100 µM (inactive)
GI50 (SNB-19): > 100 µM (inactive)
GI50 (RXF 393): > 100 µM (inactive)
GI50 (HCT-15): > 100 µM
GI50 (MOLT-4): > 100 µM (inactive)
GI50 (UACC-62): > 100 µM (inactive)
GI50 (OVCAR-4): > 100 µM (inactive)
GI50 (HL-60): > 100 µM (inactive)
GI50 (A549): > 100 µM (inactive)
GI50 (EKVX): > 100 µM (inactive)
GI50 (CAKI-1): > 100 µM (inactive)
GI50 (OVCAR-8): > 100 µM (inactive)
GI50 (SW-620): > 100 µM (inactive)
GI50 (SF-295): > 100 µM (inactive)
GI50 (DU-145): > 100 µM (inactive)
GI50 (MDA-MB-231): > 100 µM (inactive)
GI50 (IGROV-1): > 100 µM (inactive)
GI50 (RPMI-8226): > 100 µM (inactive)
GI50 (HCT-116): > 100 µM (inactive)
GI50 (OVCAR-3): > 100 µM (inactive)
GI50 (TK-10): > 100 µM (inactive)
GI50 (UO-31): > 100 µM (inactive)
GI50 (MCF7): > 100 µM (inactive)
GI50 (ACHN): > 100 µM (inactive)
GI50 (OVCAR-5): > 100 µM (inactive)
GI50 (SK-MEL-2): > 100 µM (inactive)
GI50 (CCRF-CEM): > 100 µM (inactive)
GI50 (M14): > 100 µM (inactive)
GI50 (SR): > 100 µM (inactive)
GI50 (786-0): > 100 µM (inactive)
GI50 (SNB-75): 28.6 µM (inactive)
GI50 (NCI/ADR-RES): > 100 µM (inactive)
GI50 (Hs-578T): > 100 µM (inactive)
GI50 (SF-539): > 100 µM (inactive)
GI50 (SK-MEL-28): > 100 µM (inactive)
GI50 (U-251): > 100 µM (inactive)
GI50 (COLO 205): > 100 µM (inactive)
GI50 (UACC-257): > 100 µM (inactive)
GI50 (SK-OV-3): > 100 µM (inactive)

COC(=O)N1C2C(C[C@@]1(C)C(=O)OC)c1ccccc1N2S(=O)(=O)c1ccccc1 (stereo partly specified)
GI50 (KM12): > 100 µM (inactive)
GI50 (NCI-H226): > 100 µM (inactive)
GI50 (K562): > 100 µM (inactive)
GI50 (Malme-3M): > 100 µM (inactive)
GI50 (NCI-H23): > 100 µM (inactive)
GI50 (MDA-MB-435): > 100 µM (inactive)
GI50 (LOX IMVI): > 100 µM (inactive)
GI50 (HCC 2998): > 100 µM (inactive)
GI50 (T47D): > 100 µM (inactive)
GI50 (HOP-92): > 100 µM (inactive)
GI50 (NCI-H522): > 100 µM (inactive)
GI50 (PC-3): > 100 µM (inactive)
GI50 (BT-549): > 100 µM (inactive)
GI50 (MDA-N): > 100 µM (inactive)
GI50 (SNB-19): > 100 µM (inactive)
GI50 (RXF 393): > 100 µM (inactive)
GI50 (MOLT-4): > 100 µM (inactive)
GI50 (UACC-62): > 100 µM (inactive)
GI50 (OVCAR-4): > 100 µM (inactive)
GI50 (HL-60): > 100 µM (inactive)
GI50 (A549): > 100 µM (inactive)
GI50 (EKVX): > 100 µM (inactive)
GI50 (CAKI-1): > 100 µM (inactive)
GI50 (OVCAR-8): > 100 µM (inactive)
GI50 (SW-620): > 100 µM (inactive)
GI50 (SF-295): > 100 µM (inactive)
GI50 (DU-145): > 100 µM (inactive)
GI50 (MDA-MB-231): > 100 µM (inactive)
GI50 (IGROV-1): > 100 µM (inactive)
GI50 (RPMI-8226): > 100 µM (inactive)
GI50 (HCT-116): > 100 µM (inactive)
GI50 (OVCAR-3): > 100 µM (inactive)
GI50 (TK-10): > 100 µM (inactive)
GI50 (UO-31): > 100 µM (inactive)
GI50 (MCF7): > 100 µM (inactive)
GI50 (SK-MEL-5): > 100 µM (inactive)
GI50 (ACHN): > 100 µM (inactive)
GI50 (OVCAR-5): > 100 µM (inactive)
GI50 (NCI-H460): > 100 µM (inactive)
GI50 (SF-268): > 100 µM (inactive)
GI50 (SK-MEL-2): > 100 µM (inactive)
GI50 (CCRF-CEM): > 100 µM (inactive)
GI50 (M14): > 100 µM (inactive)
GI50 (SR): > 100 µM (inactive)
GI50 (786-0): > 100 µM (inactive)
GI50 (SNB-75): > 100 µM (inactive)
GI50 (NCI/ADR-RES): > 100 µM (inactive)
GI50 (HT-29): > 100 µM (inactive)
GI50 (Hs-578T): > 100 µM (inactive)
GI50 (SK-MEL-28): > 100 µM (inactive)
GI50 (COLO 205): > 100 µM (inactive)
GI50 (UACC-257): > 100 µM (inactive)
GI50 (SK-OV-3): > 100 µM (inactive)
